Assay results as given in patent US8183243B2, “Melanocortin receptor agonists” (LG Life Sciences Ltd., priority 2008, dated 2012).

Each molecule was assayed against T1, MC4R (Homo sapiens, UniProt P32245) (assay: MCR agonistic activity (luciferase assay / cAMP accumulation assay) on MC4R). Details: HEK cell lines expressing MC4R; method A (CRE-luciferase) or B (cAMP accumulation), not said which; read-out: EC50 value, agonistic activity to MC4R (range per group of Examples).
T1 construct: expressed in transfected cells; host or cells: HEK (Human Embryonic Kidney) permanent expression cell line HEK MC4R-Luc, co-expressing CRE-luciferase
Format: cell-based
In short: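 HEK cells stably expressing MC4R with a CRE-luciferase reporter treated 5 hours at 37 °C with serially diluted agonist (≤1% DMSO); luminescence expressed relative to 10 nM NDP-MSH, EC50 at half-maximal signal. Alternatively, cAMP measured after 30 minutes with compound plus 500 μM IBMX by [3H]-cAMP competition binding.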

T1 sequence (P32245 whole entry, species assumed): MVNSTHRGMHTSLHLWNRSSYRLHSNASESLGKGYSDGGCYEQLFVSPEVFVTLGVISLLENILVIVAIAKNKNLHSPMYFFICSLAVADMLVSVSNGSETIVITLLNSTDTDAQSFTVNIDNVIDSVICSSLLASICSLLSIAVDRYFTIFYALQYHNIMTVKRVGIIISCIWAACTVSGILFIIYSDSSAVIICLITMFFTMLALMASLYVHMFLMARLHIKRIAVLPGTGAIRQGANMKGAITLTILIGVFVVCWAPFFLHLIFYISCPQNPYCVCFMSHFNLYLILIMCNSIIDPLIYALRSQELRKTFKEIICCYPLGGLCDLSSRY

For CN1CCN(C(=O)[C@@H]2C[C@H](N(C(=O)[C@@H]3CCCO3)C3CCC(C)(C)CC3)CN2C(=O)[C@@H]2CN(C3CCOCC3)C[C@H]2c2ccc(Cl)cc2)CC1 [Example 41, (2S)-N-{(3S,5S)-1-{[(3S,4R)-4-(4-chlorophenyl)-1-(tetrahydro-2H-pyran-4-yl)pyrrolidin-3-yl]carbonyl}-5-[(4-methylpiperazin-1-yl)carbonyl]pyrrolidin-3-yl}-N-(4,4-dimethylcyclohexyl)tetrahydrofuran-2-carboxamide], which EC50 is on record?
Its EC50 is 0.1 to 10 nM.

CN1CCN(C(=O)[C@@H]2C[C@H](N(C(=O)[C@@H]3CCCO3)C3CCC(C)(C)CC3)CN2C(=O)[C@@H]2CN(C3CC3)C[C@H]2c2ccc(Cl)cc2)CC1 [Example 42, (2S)-N-{(3S,5S)-1-{[(3S,4R)-4-(4-chlorophenyl)-1-cyclopropylpyrrolidin-3-yl]carbonyl}-5-[(4-methylpiperazin-1-yl)carbonyl]pyrrolidin-3-yl}-N-(4,4-dimethylcyclohexyl)tetrahydrofuran-2-carboxamide] was tested. Which EC50 did it give?
The EC50 was 10 to 100 nM.

With Cc1ccc(N2C[C@@H](C(=O)N3C[C@@H](N(C(=O)[C@@H]4CCCO4)C4CCC(C)(C)CC4)C[C@H]3C(=O)N3CCN(C)CC3)[C@H](c3ccc(Cl)cc3)C2)nn1 [Example 43, (2S)-N-{(3S,5S)-1-{[(3S,4R)-4-(4-chlorophenyl)-1-(6-methylpyridazin-3-yl)pyrrolidin-3-yl]carbonyl}-5-[(4-methylpiperazin-1-yl)carbonyl]pyrrolidin-3-yl}-N-(4,4-dimethylcyclohexyl)tetrahydrofuran-2-carboxamide] as the molecule, how does the EC50 read?
The EC50 was 0.1 to 10 nM.

How did the EC50 turn out when CN1CCN(C(=O)[C@@H]2C[C@H](N(C(=O)[C@@H]3CCCO3)[C@H]3CC[C@@H](C)CC3)CN2C(=O)[C@@H]2CN(c3ccc(Cl)nn3)C[C@H]2c2ccc(F)cc2F)CC1 [Example 44, (2S)-N-{(3S,5S)-1-{[(3S,4R)-4-(2,4-difluorophenyl)-1-(6-chloropyridazin-3-yl)pyrrolidin-3-yl]carbonyl}-5-[(4-methylpiperazin-1-yl)carbonyl]pyrrolidin-3-yl}-N-(cis-4-methylcyclohexyl)tetrahydrofuran-2-carboxamide] was run?
The EC50 was 10 to 100 nM.

Which EC50 does the source give for CN1CCN(C(=O)[C@@H]2C[C@H](N(C(=O)[C@@H]3CCCO3)C3CCC(C)(C)CC3)CN2C(=O)[C@@H]2CN(c3cccnn3)C[C@H]2c2ccc(F)cc2F)CC1 [Example 45] here?
The EC50 was 0.1 to 10 nM.

How did the EC50 turn out when CN1CCN(C(=O)[C@@H]2C[C@H](N(C(=O)[C@@H]3CCCO3)[C@H]3CC[C@@H](C)CC3)CN2C(=O)[C@@H]2CN(c3ccccc3)C[C@H]2c2ccc(Cl)cc2)CC1 [Example 46, (2S)-N-{(3S,5S)-1-{[(3S,4R)-4-(4-chlorophenyl)-1-phenylpyrrolidin-3-yl]carbonyl}-5-[(4-methylpiperazin-1-yl)carbonyl]pyrrolidin-3-yl}-N-(cis-4-methylcyclohexyl)tetrahydrofuran-2-carboxamide] was run?
The EC50 was 10 to 100 nM.

For CC(C)N1CCN(C(=O)[C@@H]2C[C@H](N(C(=O)[C@@H]3CCCO3)C3CCC(C)(C)CC3)CN2C(=O)[C@@H]2CN(C3CCOCC3)C[C@H]2c2ccc(F)cc2F)CC1 [Example 47, (2S)-N-{(3S,5S)-1-{[(3S,4R)-4-(2,4-difluorophenyl)-1-(tetrahydro-2H-pyran-4-yl)pyrrolidin-3-yl]carbonyl}-5-[(4-isopropylpiperazin-1-yl)carbonyl]pyrrolidin-3-yl}-N-(4,4-dimethylcyclohexyl)tetrahydrofuran-2-carboxamide], which EC50 is on record?
Its EC50 is 10 to 100 nM.

Which EC50 does the source give for CC(C)N1CCN(C(=O)[C@@H]2C[C@H](N(C(=O)[C@@H]3CCCO3)C3CCC(C)(C)CC3)CN2C(=O)[C@@H]2CN(C3CCSCC3)C[C@H]2c2ccc(F)cc2F)CC1 [Example 48, (2S)-N-{(3S,5S)-1-{[(3S,4R)-4-(2,4-difluorophenyl)-1-(tetrahydro-2H-thiopyran-4-yl)pyrrolidin-3-yl]carbonyl}-5-[(4-isopropylpiperazin-1-yl)carbonyl]pyrrolidin-3-yl}-N-(4,4-dimethylcyclohexyl)tetrahydrofuran-2-carboxamide] here?
The EC50 was 10 to 100 nM.

How did the EC50 turn out when CN1CCN(C(=O)[C@@H]2C[C@H](N(C(=O)C(C)(C)CO)C3CCC(C)(C)CC3)CN2C(=O)[C@@H]2CN(C3CCOCC3)C[C@H]2c2ccc(Cl)cc2)CC1 [Example 49, N-{(3S,5S)-1-{[(3S,4R)-4-(4-chlorophenyl)-1-(tetrahydro-2H-pyran-4-yl)pyrrolidin-3-yl]carbonyl}-5-[(4-methylpiperazin-1-yl)carbonyl]pyrrolidin-3-yl}-N-(4,4-dimethylcyclohexyl)-3-hydroxy-2,2-dimethylpropanamide] was run?
The EC50 was 0.1 to 10 nM.

CN1CCN(C(=O)[C@@H]2C[C@H](N(C(=O)C(C)(C)C)C3CCC(F)(F)CC3)CN2C(=O)[C@@H]2CN(C3CCOCC3)C[C@H]2c2ccc(Cl)cc2)CC1 [Example 50, N-{(3S,5S)-1-{[(3S,4R)-4-(4-chlorophenyl)-1-(tetrahydro-2H-pyran-4-yl)pyrrolidin-3-yl]carbonyl}-5-[(4-methylpiperazin-1-yl)carbonyl]pyrrolidin-3-yl}-N-(4,4-difluorocyclohexyl)-2,2-dimethylpropanamide] was tested. Which EC50 did it give?
Its EC50 is 0.1 to 10 nM.

CN1CCN(C(=O)[C@@H]2C[C@H](N(C(=O)[C@@H]3CCCO3)C3CCC(F)(F)CC3)CN2C(=O)[C@@H]2CN(C3CCOCC3)C[C@H]2c2ccc(Cl)cc2)CC1 [Example 51, (2S)-N-{(3S,5S)-1-{[(3S,4R)-4-(4-chlorophenyl)-1-(tetrahydro-2H-pyran-4-yl)pyrrolidin-3-yl]carbonyl}-5-[(4-methylpiperazin-1-yl)carbonyl]pyrrolidin-3-yl}-N-(4,4-difluorocyclohexyl)tetrahydrofuran-2-carboxamide] was tested. Which EC50 did it give?
Its EC50 is 10 to 100 nM.

How did the EC50 turn out when CC(C)N1CCN(C(=O)[C@H]2C[C@H](N(C(=O)[C@@H]3CCCO3)C3CCC(C)(C)CC3)CN2C(=O)[C@@H]2CN(C3CCOCC3)C[C@H]2c2ccc(F)cc2F)CC1 [Example 52, (2S)-N-{(3S,5R)-1-{[(3S,4R)-4-(2,4-difluorophenyl)-1-(tetrahydro-2H-pyran-4-yl)pyrrolidin-3-yl]carbonyl}-5-[(4-isopropylpiperazin-1-yl)carbonyl]pyrrolidin-3-yl}-N-(4,4-dimethylcyclohexyl)tetrahydrofuran-2-carboxamide] was run?
Its EC50 is 0.1 to 10 nM.

Which EC50 does the source give for CN1CCN(C(=O)[C@@H]2C[C@H](N(C(=O)C(C)(C)C)[C@H]3CC[C@@H](C)CC3)CN2C(=O)[C@@H]2CN(C3CCOCC3)C[C@H]2c2ccc(F)cc2F)CC1 [Example 53, N-{(3S,5S)-1-{[(3S,4R)-4-(2,4-difluorophenyl)-1-(tetrahydro-2H-pyran-4-yl)pyrrolidin-3-yl]carbonyl}-5-[(4-methylpiperazin-1-yl)carbonyl]pyrrolidin-3-yl}-2,2-dimethyl-N-(cis-4-methylcyclohexyl)propanamide] here?
Its EC50 is 0.1 to 10 nM.

CC(=O)N(C1CCC(C)CC1)[C@H]1C[C@H](C(=O)N2CCN(C)CC2)N(C(=O)[C@@H]2CN(C3CCOCC3)C[C@H]2c2ccc(Cl)cc2)C1 (stereo partly drawn) [Example 54, N-{(3S,5R)-1-{[(3S,4R)-4-(4-chlorophenyl)-1-(tetrahydro-2H-pyran-4-yl)pyrrolidin-3-yl]carbonyl}-5-[(4-methylpiperazin-1-yl)carbonyl]pyrrolidin-3-yl}-N-(4-methylcyclohexyl)acetamide] was tested. Which EC50 did it give?
Its EC50 is 0.1 to 10 nM.

How did the EC50 turn out when CN1CCN(C(=O)[C@H]2C[C@H](N(C(=O)[C@@H]3CCCO3)C3CCC(C)(C)CC3)CN2C(=O)[C@@H]2CN(C3CC3)C[C@H]2c2ccc(Cl)cc2)CC1 [Example 55, (2S)-N-{(3S,5R)-1-{[(3S,4R)-4-(4-chlorophenyl)-1-cyclopropylpyrrolidin-3yl]carbonyl}-5-[(4-methylpiperazin-1-yl)carbonyl]pyrrolidin-3-yl}-N-(4,4-dimethylcyclohexyl)tetrahydrofuran-2-carboxamide] was run?
Its EC50 is 10 to 100 nM.

With CN1CCN(C(=O)[C@@H]2C[C@H](N(C(=O)[C@@H]3CCCO3)[C@H]3CC[C@@H](C)CC3)CN2C(=O)[C@@H]2CN(C3CC3)C[C@H]2c2ccc(Cl)cc2)CC1 [Example 56, (2S)-N-{(3S,5S)-1-{[(3S,4R)-4-(4-chlorophenyl)-1-cyclopropylpyrrolidin-3-yl]carbonyl}-5-[(4-methylpiperazin-1-yl)carbonyl]pyrrolidin-3-yl}-N-(cis-4-methylcyclohexyl)tetrahydrofuran-2-carboxamide] as the molecule, how does the EC50 read?
Its EC50 is 10 to 100 nM.

With CN1CCN(C(=O)[C@H]2C[C@H](N(C(=O)[C@@H]3CCCO3)[C@H]3CC[C@@H](C)CC3)CN2C(=O)[C@@H]2CN(C3CC3)C[C@H]2c2ccc(Cl)cc2)CC1 [Example 57, (2S)-N-{(3S,5R)-1-{[(3S,4R)-4-(4-chlorophenyl)-1-cyclopropylpyrrolidin-3-yl]carbonyl}-5-[(4-methylpiperazin-1-yl)carbonyl]pyrrolidin-3-yl}-N-(cis-4-methylcyclohexyl)tetrahydrofuran-2-carboxamide] as the molecule, how does the EC50 read?
The EC50 was 10 to 100 nM.

For CN1CCN(C(=O)[C@@H]2C[C@H](N(C(=O)C(C)(C)CO)C3CCC(C)(C)CC3)CN2C(=O)[C@@H]2CN(C3CC3)C[C@H]2c2ccc(Cl)cc2)CC1 [Example 58, N-{(3S,5S)-1-{[(3S,4R)-4-(4-chlorophenyl)-1-cyclopropylpyrrolidin-3-yl]carbonyl}-5-[(4-methylpiperazin-1-yl)carbonyl]pyrrolidin-3-yl}-N-(4,4-dimethylcyclohexyl)-3-hydroxy-2,2-dimethylpropanamide], which EC50 is on record?
Its EC50 is 0.1 to 10 nM.

CN1CCN(C(=O)[C@@H]2C[C@H](N(C(=O)C(C)(C)CO)[C@H]3CC[C@@H](C)CC3)CN2C(=O)[C@@H]2CN(C3CC3)C[C@H]2c2ccc(Cl)cc2)CC1 [Example 59, N-{(3S,5S)-1-{[(3S,4R)-4-(4-chlorophenyl)-1-cyclopropylpyrrolidin-3-yl]carbonyl}-5-[(4-methylpiperazin-1-yl)carbonyl]pyrrolidin-3-yl}-N-(cis-4-methylcyclohexyl)-3-hydroxy-2,2-dimethylpropanamide] was tested. Which EC50 did it give?
Its EC50 is 0.1 to 10 nM.

Same assay, conditions: specific activities of representative compounds; HEK cell lines expressing MC4R; method A or B, not said which; read-out: EC50

With CN1CCN(C(=O)[C@@H]2C[C@H](N(C(=O)[C@@H]3CCCO3)C3CCC(C)(C)CC3)CN2C(=O)[C@@H]2CN(C3CCOCC3)C[C@H]2c2ccc(Cl)cc2)CC1 [Example 41, (2S)-N-{(3S,5S)-1-{[(3S,4R)-4-(4-chlorophenyl)-1-(tetrahydro-2H-pyran-4-yl)pyrrolidin-3-yl]carbonyl}-5-[(4-methylpiperazin-1-yl)carbonyl]pyrrolidin-3-yl}-N-(4,4-dimethylcyclohexyl)tetrahydrofuran-2-carboxamide] as the molecule, how does the EC50 read?
The EC50 was 3 nM.

With Cc1ccc(N2C[C@@H](C(=O)N3C[C@@H](N(C(=O)[C@@H]4CCCO4)C4CCC(C)(C)CC4)C[C@H]3C(=O)N3CCN(C)CC3)[C@H](c3ccc(Cl)cc3)C2)nn1 [Example 43, (2S)-N-{(3S,5S)-1-{[(3S,4R)-4-(4-chlorophenyl)-1-(6-methylpyridazin-3-yl)pyrrolidin-3-yl]carbonyl}-5-[(4-methylpiperazin-1-yl)carbonyl]pyrrolidin-3-yl}-N-(4,4-dimethylcyclohexyl)tetrahydrofuran-2-carboxamide] as the molecule, how does the EC50 read?
Its EC50 is 10 nM.

CN1CCN(C(=O)[C@@H]2C[C@H](N(C(=O)[C@@H]3CCCO3)C3CCC(C)(C)CC3)CN2C(=O)[C@@H]2CN(c3cccnn3)C[C@H]2c2ccc(F)cc2F)CC1 [Example 45] was tested. Which EC50 did it give?
The EC50 was 8 nM.
